Inhibition data for 21 compounds are collected here from patent US8455475B2 (Gruenenthal GmbH, priority 2009, dated 2013).

Test [1] concerns the target T1, human B1R (bradykinin receptor 1) (Homo sapiens, UniProt P46663).
T1 construct: expressed in transfected cells; host or cells: CHO K1 cells
T1 sequence (P46663 1-353): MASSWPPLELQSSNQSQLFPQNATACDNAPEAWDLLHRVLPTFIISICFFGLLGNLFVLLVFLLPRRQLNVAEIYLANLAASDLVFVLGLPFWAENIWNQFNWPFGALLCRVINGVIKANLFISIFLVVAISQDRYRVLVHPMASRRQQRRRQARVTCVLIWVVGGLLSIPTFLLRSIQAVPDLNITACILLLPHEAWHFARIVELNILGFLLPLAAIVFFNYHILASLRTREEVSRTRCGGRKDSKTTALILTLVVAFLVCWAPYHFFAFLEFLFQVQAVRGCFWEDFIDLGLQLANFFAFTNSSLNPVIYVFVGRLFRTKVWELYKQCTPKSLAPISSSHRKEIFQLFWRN
As to the kind of experiment: FLIPR Ca2+ assay (Fluo-4) on CHO K1 cells stably transfected with the human B1R gene (hB1R cells): % inhibition at 10 μM / IC50, agonist Lys-Des-Arg9-bradykinin. It counts as cell-based. Conditions: CHO-K1, human B1R. The essentials:
(§1)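 Loading with Fluo-4 occurs for 60 min at 37 °C, or alternatively in buffer A, before FLIPR measurement. Compounds are applied, incubated 10–20 min, and then the EC80 agonist is added. Antagonism appears as reduced peak Ca2+ signal relative to maximal inhibition.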

Test [2] deals with T2, rat B1R (bradykinin receptor 1) (Rattus norvegicus, UniProt P97583).
T2 construct: expressed in transfected cells; host or cells: CHO K1 cells
T2 sequence (P97583 1-337): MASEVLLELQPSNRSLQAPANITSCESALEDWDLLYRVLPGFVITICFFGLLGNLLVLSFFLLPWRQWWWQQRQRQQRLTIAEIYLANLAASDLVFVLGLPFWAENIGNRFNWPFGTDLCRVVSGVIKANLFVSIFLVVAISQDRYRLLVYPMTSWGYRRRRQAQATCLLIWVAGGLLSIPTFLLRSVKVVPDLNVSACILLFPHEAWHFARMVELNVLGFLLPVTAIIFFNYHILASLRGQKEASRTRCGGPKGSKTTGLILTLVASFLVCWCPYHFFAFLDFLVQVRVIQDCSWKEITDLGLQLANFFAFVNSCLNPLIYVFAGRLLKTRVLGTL
Kind of test: FLIPR Ca2+ assay (Fluo-4) on CHO K1 cells stably transfected with the B1R gene of the rat (rB1R cells): % inhibition at 10 μM / IC50, agonist Des-Arg9-bradykinin. The class given is cell-based. Conditions: CHO-K1, rat B1R. In a few lines:
as §1

Consider `O=C(NC1CCc2ccc(C(=O)N3CCC4(CC3)CCN(c3ccncc3)CC4)cc21)c1ccccc1C(F)(F)F` (stereo not drawn) [Ind_CC-003, N-[6-(9-pyridin-4-yl-3,9-diazaspiro[5.5]undecane-3-carbonyl)-2,3-dihydro-1H-inden-1-yl]-2-(trifluoromethyl)-benzamide], for which the inhibition at 10 µM in test [1] turned out to be 99%; in test [2], 101%.
`COc1cc(C)c(C(=O)NC2CCc3ccc(C(=O)N4CCC5(CC4)CCN(c4ccc(F)cc4)CC5)cc32)c(C)c1` (stereo not drawn) [Ind_CC-091, N-[6-[9-(4-fluorophenyl)-3,9-diazaspiro[5.5]undecane-3-carbonyl]-2,3-dihydro-1H-inden-1-yl]-4-methoxy-2,6-dimethyl-benzamide]: the inhibition at 10 µM was 24% in test [1] and 50% in test [2].
Take `CC1(C)CC(NC(=O)c2cc(C(F)(F)F)ccc2Cl)c2cc(C(=O)N3CCC4(CC3)CCN(c3ccncc3)CC4)ccc21` (stereo not drawn) [IND_CC-250, 2-Chloro-N-[3,3-dimethyl-6-(3-pyridin-4-yl-3,9-diazaspiro[5.5]undecane-9-carbonyl)-1,2-dihydro-inden-1-yl]-5-(trifluoromethyl)-benzamide]: the inhibition at 10 µM in test [1] amounted to 94%; in test [2], 100%.
In the same order, the values of `CN1CCN(C(=O)C2CCC3(CC2)CCN(C(=O)c2ccc4c(c2)[C@H](NC(=O)c2ccccc2Cl)CC4)CC3)CC1` [Example H-29, 2-chloro-N-[(1R)-6-[9-(4-methyl-piperazine-1-carbonyl)-3-azaspiro[5.5]undecane-3-carbonyl]-2,3-dihydro-1H-inden-1-yl]-benzamide] are 33% and 55%.
`CC1(C)CC(NC(=O)c2c(F)cccc2Cl)c2cc(C(=O)N3CCC4(CC3)CCN(c3ccncc3)CC4)ccc21` (stereo not drawn) [IND_CC-279, 2-Chloro-N-[3,3-dimethyl-6-(3-pyridin-4-yl-3,9-diazaspiro[5.5]undecane-9-carbonyl)-1,2-dihydro-inden-1-yl]-6-fluoro-benzamide]: the inhibition at 10 µM in test [1] was 100%; in test [2], 106%.
Taken in the same sequence, the figures for `Cc1ccc(F)c(C(=O)NC2c3cc(C(=O)N4CCC5(CC4)CCN(c4ccncc4)CC5)ccc3CC2(C)C)c1Cl` (stereo not drawn) [IND_CC-216, 2-Chloro-N-[2,2-dimethyl-6-(9-pyridin-4-yl-3,9-diazaspiro[5.5]undecane-3-carbonyl)-1,3-dihydro-inden-1-yl]-6-fluoro-3-methyl-benzamide] were 58% and 103%.
Turning to `O=C(c1ccc2c(c1)[C@H](NS(=O)(=O)c1c(Cl)cccc1Cl)CC2)N1CCC2(CCN(c3ccncc3)CC2)C1` [Example H-119, 2,6-Dichloro-N-[(1R)-6-(8-pyridin-4-yl-3,8-diazaspiro[4.5]decane-3-carbonyl)-2,3-dihydro-1H-inden-1-yl]-benzenesulfonic acid amide], the inhibition at 10 µM in test [1] and in test [2] was 100% throughout.
Consider `CN(C(=O)c1ccccc1Cl)C1CCc2ccc(C(=O)N3CCC4(CC3)CCC(c3ccc(F)cc3)(N(C)C)CC4)cc21` (stereo not drawn) [Ind_CC-110, 2-chloro-N-[6-[9-dimethylamino-9-(4-fluorophenyl)-3-azaspiro[5.5]undecane-3-carbonyl]-2,3-dihydro-1H-inden-1-yl]-N-methyl-benzamide], for which the inhibition at 10 µM was 52% in test [1] and 79% in test [2].
Regarding `O=C(c1cccc2c1CC[C@H]2NS(=O)(=O)c1ccccc1Cl)N1CCC2(CCN(c3ccncc3)CC2)C1` [Example H-166, 2-Chloro-N-[(1R)-4-(8-pyridin-4-yl-3,8-diazaspiro[4.5]decane-3-carbonyl)-2,3-dihydro-1H-inden-1-yl]-benzenesulfonic acid amide], the inhibition at 10 µM in test [1] is 21%; in test [2] it was -4%.
As for `O=C(N[C@@H]1CCc2ccc(C(=O)N3CCC4(CCC(C(=O)N5CCn6ncnc6C5)CC4)CC3)cc21)c1ccccc1Cl` [Example H-97, 2-Chloro-N-[(1R)-6-[9-(5,6,7,8-tetrahydro-[1,2,4]triazolo[1,5-a]pyrazine-7-carbonyl)-3-azaspiro[5.5]undecane-3-carbonyl]-2,3-dihydro-1H-inden-1-yl]-benzamide], the inhibition at 10 µM in test [1] worked out at 6%; in test [2], 90%.
Taken in the same sequence, the figures for `COc1ccc(C(=O)NC2CC(C)(C)c3ccc(C(=O)N4CCC5(CC4)CCN(c4ccncc4)CC5)cc32)c(F)c1` (stereo not drawn) [IND_CC-312, N-[3,3-Dimethyl-6-(3-pyridin-4-yl-3,9-diazaspiro[5.5]undecane-9-carbonyl)-1,2-dihydro-inden-1-yl]-2-fluoro-4-methoxy-benzamide] were 44% and 102%.
In the same order, the values of `CC1(C)CC(NC(=O)c2ccccc2Cl)c2cc(C(=O)N3CCC4(CCN(c5ccncc5)CC4)C3)ccc21` (stereo not drawn) [Example H-132, 2-Chloro-N-[3,3-dimethyl-6-(8-pyridin-4-yl-3,8-diazaspiro[4.5]decane-3-carbonyl)-1,2-dihydro-inden-1-yl]-benzamide] are 100% and 102%.
Turning to `CN([C@@H]1CCc2ccc(C(=O)N3CCC4(CCN(c5ccncc5)CC4)C3)cc21)S(=O)(=O)c1ccccc1Cl` [Example H-136, 2-Chloro-N-methyl-N-[(1R)-6-(8-pyridin-4-yl-3,8-diazaspiro[4.5]decane-3-carbonyl)-2,3-dihydro-1H-inden-1-yl]-benzenesulfonic acid amide], the inhibition at 10 µM in test [1] was 99%; in test [2], 101%.
In the same order, the values of `CN(C(=O)c1cc(F)c(F)cc1Cl)C1CCc2ccc(C(=O)N3CCC4(CC3)CCN(c3ccncc3)CC4)cc21` (stereo not drawn) [IND_CC-224, 2-Chloro-4,5-difluoro-N-methyl-N-[6-(9-pyridin-4-yl-3,9-diazaspiro[5.5]undecane-3-carbonyl)-2,3-dihydro-1H-inden-1-yl]-benzamide] are 100% and 103%.
With `O=C(NC1CCc2ccc(C(=O)N3CCC4(CC3)CCN(c3ccncc3)CC4)cc21)c1cc(C(F)(F)F)ccc1Cl` (stereo not drawn) [IND_CC-217, 2-Chloro-N-[6-(9-pyridin-4-yl-3,9-diazaspiro[5.5]undecane-3-carbonyl)-2,3-dihydro-1H-inden-1-yl]-5-(trifluoromethyl)-benzamide], the values for the inhibition at 10 µM in test [1] and in test [2] were 99% and 95%, respectively.
For the compound `Cc1cccc(C)c1C(=O)N[C@@H]1CCc2ccc(C(=O)N3CCC4(CCN(c5ccncc5)CC4)C3)cc21` [Example H-104, 2,6-Dimethyl-N-[(1R)-6-(8-pyridin-4-yl-3,8-diazaspiro[4.5]decane-3-carbonyl)-2,3-dihydro-1H-inden-1-yl]-benzamide], the inhibition at 10 µM in test [1] came to 101%; in test [2], 109%.
Taken in the same sequence, the figures for `O=C(NC1CCc2ccc(C(=O)N3CCC4(CC3)CCN(c3ccncc3)C4)cc21)c1sccc1Cl` (stereo not drawn) [Ind_CC-042, 3-chloro-N-[6-(2-pyridin-4-yl-2,8-diazaspiro[4.5]decane-8-carbonyl)-2,3-dihydro-1H-inden-1-yl]-thiophene-2-carboxylic acid amide] were 98% and 101%.
Taken in the same sequence, the figures for `CC(C)(C)CC(=O)N1CCC2(CC1)CCN(C(=O)c1ccc3c(c1)C(NC(=O)c1ccccc1Cl)CC3)C2` (stereo not drawn) [IND_CC-574, 2-Chloro-N-[6-[8-(3,3-dimethyl-butanoyl)-2,8-diazaspiro[4.5]decane-2-carbonyl]-2,3-dihydro-1H-inden-1-yl]-benzamide] were 14% and 101%.
With `O=C(NC1CCc2ccc(C(=O)N3CCC4(CC3)CCN(c3ccncc3)C4)cc21)c1c(F)cccc1Cl` (stereo not drawn) [IND_CC-264, 2-Chloro-6-fluoro-N-[6-(2-pyridin-4-yl-2,8-diazaspiro[4.5]decane-8-carbonyl)-2,3-dihydro-1H-inden-1-yl]-benzamide], the values for the inhibition at 10 µM in test [1] and in test [2] were 97% and 106%, respectively.
Taken in the same sequence, the figures for `O=C(N[C@@H]1CCc2ccc(C(=O)N3CCC4(CC3)CCN(c3ccncc3)C4)cc21)c1ccccc1Cl` [Example H-91, 2-Chloro-N-[(1R)-6-(3-pyridin-4-yl-3,8-diazaspiro[4.5]decane-8-carbonyl)-2,3-dihydro-1H-inden-1-yl]-benzamide] were 100% and 104%.
On to `CC1(C)Cc2ccc(C(=O)N3CCC4(CC3)CCN(c3ccncc3)CC4)cc2C1NC(=O)c1ccccc1Cl` (stereo not drawn) [IND_CC-291, 2-Chloro-N-[2,2-dimethyl-6-(9-pyridin-4-yl-3,9-diazaspiro[5.5]undecane-3-carbonyl)-1,3-dihydro-inden-1-yl]-benzamide], for which the inhibition at 10 µM was determined as 98% in test [1] and 104% in test [2].
